Measured values reported in publication PMC9133036 (Nature Communications, 2022).
Residue numbers refer to the chain shown, from its start. Where “and” joins values, the source holds several entries; their conditions need not be identical. Equal entries are not always repeated. Where two headings read alike, the source gives them in different places. One block for each molecule: values may come before it.

Tests used:
Type in all cases: cell-based
OX2R T111A = target: T1, OX2R T111A (Homo sapiens, UniProt O43614, T111A); assay: IP accumulation assay, OX2R T111A; conditions: for % IP accumulation: listed as OXB
T1 construct: FLAG; expressed in transfected cells; host or cells: HEK293
T1 sequence (O43614 1-444 T111A): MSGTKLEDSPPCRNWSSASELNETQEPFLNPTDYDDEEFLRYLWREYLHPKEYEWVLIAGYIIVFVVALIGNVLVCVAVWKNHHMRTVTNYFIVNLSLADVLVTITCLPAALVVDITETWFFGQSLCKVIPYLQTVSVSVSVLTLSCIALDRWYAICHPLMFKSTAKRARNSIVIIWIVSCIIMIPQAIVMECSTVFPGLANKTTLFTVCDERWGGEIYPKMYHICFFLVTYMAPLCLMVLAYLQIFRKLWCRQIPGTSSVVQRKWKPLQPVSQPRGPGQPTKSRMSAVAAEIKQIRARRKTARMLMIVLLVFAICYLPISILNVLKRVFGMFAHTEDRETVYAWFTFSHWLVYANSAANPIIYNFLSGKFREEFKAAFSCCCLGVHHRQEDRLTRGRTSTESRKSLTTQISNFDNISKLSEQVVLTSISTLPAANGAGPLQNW
Description: (§1) The IP assay was adapted from a prior precedent. HEK293 cells were maintained in DMEM-high glucose (Millipore Sigma) supplemented with 5% fetal bovine serum (Corning) and penicillin-streptomycin (Millipore Sigma). Receptor constructs used were the full-length wild-type (or mutant) human OX1R and OX2R sequences cloned into pCDNA3. To enhance the Emax in the IP assay, a plasmid encoding full-length human Gαq subunit[66] was co-transfected into HEK293 cells with plasmids encoding orexin receptor constructs using Lipofectamine 3000 (Thermo Fisher). 24 h after transfection, the cells were plated on poly-D-lysine coated (Millipore Sigma) tissue culture-treated 96 well white plates with clear bottoms (Perkin Elmer) at 30,000 cells per well in Inositol-free DMEM (MP Biomedicals) supplemented with 5% fetal bovine serum, 4 mM L-glutamine (Millipore Sigma), penicillin-streptomycin, and about 5 uCi (5 ul) per ml myo-[2-3H] inositol (Perkin Elmer). The following day, the media was replaced with agonists that were diluted in HBSS (Millipore Sigma) containing 10 mM lithium chloride (Millipore Sigma) and incubated at 37 °C for 45 min. Then agonists were removed and cells were lysed on ice for 30 min with 10 mM formic acid (Millipore Sigma). 1.25 mg of poly-lysine coated YSI SPA beads (Perkin Elmer) was added to each well. The plates were mixed on an orbital shaker for 30 min. The plates were read on a MicroBeta scintillation counter (Perkin Elmer) the following day. IP accumulation assays on different constructs were performed in n ≥ 3 independent experiments (each done in duplicate), where n is shown in Supplementary Table 2.

OX2R Y354A = target: T2, OX2R Y354A (Homo sapiens, UniProt O43614, Y354A); assay: β-arrestin PathHunter assay, OX2R Y354A; conditions: for beta-arrestin recruitment fold change: Y354A, listed as OxB
T2 construct: expressed in transfected cells; host or cells: CHO-K1 cells stably expressing EA β-arrestin2 (DiscoveRX), transiently transfected with pCMV-ProLink OX2R
T2 sequence (O43614 whole entry Y354A): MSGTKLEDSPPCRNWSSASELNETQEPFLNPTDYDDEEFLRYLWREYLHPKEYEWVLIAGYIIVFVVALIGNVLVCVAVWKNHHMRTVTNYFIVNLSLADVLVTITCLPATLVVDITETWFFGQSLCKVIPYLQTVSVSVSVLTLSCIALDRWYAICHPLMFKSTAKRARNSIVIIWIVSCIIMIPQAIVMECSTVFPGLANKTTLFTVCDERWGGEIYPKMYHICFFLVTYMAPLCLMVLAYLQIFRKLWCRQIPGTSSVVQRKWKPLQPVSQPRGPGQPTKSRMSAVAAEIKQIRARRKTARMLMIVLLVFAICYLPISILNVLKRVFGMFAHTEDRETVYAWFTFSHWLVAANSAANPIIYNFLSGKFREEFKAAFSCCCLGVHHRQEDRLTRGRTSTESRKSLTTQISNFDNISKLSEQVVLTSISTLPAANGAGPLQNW
T2 sequence (P32121 whole entry partner): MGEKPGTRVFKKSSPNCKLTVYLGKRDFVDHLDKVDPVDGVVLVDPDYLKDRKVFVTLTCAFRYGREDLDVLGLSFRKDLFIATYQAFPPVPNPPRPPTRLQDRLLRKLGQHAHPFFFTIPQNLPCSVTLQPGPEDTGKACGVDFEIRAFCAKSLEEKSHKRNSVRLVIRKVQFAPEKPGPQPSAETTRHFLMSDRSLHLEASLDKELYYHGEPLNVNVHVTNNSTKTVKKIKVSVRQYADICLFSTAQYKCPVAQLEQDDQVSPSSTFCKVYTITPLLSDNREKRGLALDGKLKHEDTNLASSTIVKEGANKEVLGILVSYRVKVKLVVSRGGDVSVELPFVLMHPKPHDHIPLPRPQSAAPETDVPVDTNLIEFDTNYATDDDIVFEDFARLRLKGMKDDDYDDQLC
Method: (§2) β-Arrestin recruitment activity was measured by using the PathHunter system (DiscoveRX) according to the manufacturer’s instruction. Receptor constructs used were the full-length wild-type (or mutant) human OX2R sequences cloned into pCMV-ProLink (DiscoveRX). CHO-K1 cells stably expressing EA β-arrestin2 (DiscoveRX) were plated on 384 well white plates (Thermo Fisher) at 4000 cells/well in HamF12 (Wako Pure Chemical Industries) supplemented with 10% fetal bovine serum (Corning) and penicillin-streptomycin (Wako Pure Chemical Industries) and incubated overnight at 37 °C under 5% CO2. Cells were transfected with plasmids encoding wild type or each mutant ProLink-tagged human OX2R using FuGENE HD (Promega). […] Detection reagent was added and incubated for 1 h at room temperature. Luminescent signal was detected using an EnVision plate reader (PerkinElmer). β-arrestin assays on different constructs were performed in two or three independent experiments (each done in quadruplicate). Dose response curves (shown in Supplementary Fig. 8) were fitted to the three-parameter model ‘log(agonist) vs response’ in GraphPad Prism to determine pEC50 values.

OX2R F227A = target: T3, OX2R F227A (Homo sapiens, UniProt O43614, F227A); assay: β-arrestin PathHunter assay, OX2R F227A; conditions: for beta-arrestin recruitment fold change: F227A, listed as OxB; for EC50: β-arrestin recruitment
T3 construct: expressed in transfected cells; host or cells: CHO-K1 stably expressing EA β-arrestin2
T3 sequence (O43614 1-444 F227A): T1 sequence (O43614 1-444 T111A) with A111T, F227A
Method: as §2

human OX2R wild type = target: T4, human OX2R wild type (Homo sapiens, UniProt O43614); assay: Inositol phosphate accumulation assay for Gq signaling, OX2R WT; parameters: FLAG; expressed in transfected cells; host or cells: HEK293; conditions: for Emax: normalized to OX2R WT Emax with the same ligand;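 on % IP accumulation: 100% equals the maximal response of wild-type OX2R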
T4 sequence (O43614 1-444): T1 sequence (O43614 1-444 T111A) with A111T
Description: as §1

[1] = OxB concentration -6.00 (log, M)
[2] = OxB concentration -6.52 (log, M)
[3] = OxB concentration -7.00 (log, M)
[4] = OxB concentration -7.52 (log, M)
[5] = OxB concentration -8.00 (log, M)
[6] = OxB concentration -8.52 (log, M)
[7] = OxB concentration -9.00 (log, M)
[8] = OxB concentration -10.00 (log, M)

Molecule: orexin B
% IP accumulation (OX2R T111A; OXB conc (log, M) -6.95): 23.30% and 22.94% and 22.04%
% IP accumulation (OX2R T111A; OXB conc (log, M) -7.43): 18.33% and 16.23% and 14.57%
% IP accumulation (OX2R T111A; OXB conc (log, M) -7.91): 15.27% and 13.44% and 11.80%
beta-arrestin recruitment fold change (OX2R Y354A; [1]): 9.833 fold and 7.839 fold and 7.764 fold and 5.538 fold
beta-arrestin recruitment fold change (OX2R Y354A; [2]): 8.222 fold and 8.331 fold and 7.995 fold and 7.023 fold
beta-arrestin recruitment fold change (OX2R Y354A; [3]): 7.061 fold and 6.164 fold and 4.831 fold and 5.998 fold
beta-arrestin recruitment fold change (OX2R Y354A; [4]): 3.021 fold and 4.546 fold and 4.264 fold and 4.947 fold
beta-arrestin recruitment fold change (OX2R Y354A; [5]): 1.570 fold and 2.249 fold and 1.723 fold and 2.390 fold
beta-arrestin recruitment fold change (OX2R Y354A; [6]): 0.925 fold and 1.624 fold and 1.133 fold and 1.227 fold
beta-arrestin recruitment fold change (OX2R Y354A; [7]): 0.997 fold and 0.922 fold and 1.331 fold and 1.082 fold
beta-arrestin recruitment fold change (OX2R Y354A; [8]): 1.135 fold and 1.096 fold and 1.298 fold and 1.060 fold
beta-arrestin recruitment fold change (OX2R F227A; [1]): 9.362 fold and 8.115 fold and 7.068 fold and 6.668 fold
beta-arrestin recruitment fold change (OX2R F227A; [2]): 5.797 fold and 5.207 fold and 4.992 fold and 3.983 fold
beta-arrestin recruitment fold change (OX2R F227A; [3]): 2.141 fold and 2.264 fold and 1.690 fold and 2.115 fold
beta-arrestin recruitment fold change (OX2R F227A; [4]): 0.997 fold and 1.239 fold and 0.840 fold and 1.032 fold
beta-arrestin recruitment fold change (OX2R F227A; [5]): 0.797 fold and 0.852 fold and 0.855 fold and 0.772 fold
beta-arrestin recruitment fold change (OX2R F227A; [6]): 0.707 fold and 0.923 fold and 0.738 fold and 0.787 fold
beta-arrestin recruitment fold change (OX2R F227A; [7]): 0.670 fold and 0.812 fold and 0.735 fold and 0.836 fold
beta-arrestin recruitment fold change (OX2R F227A; [8]): 0.813 fold and 0.979 fold and 0.709 fold and 0.989 fold
% IP accumulation (human OX2R wild type; OXB conc (log, M) -6.47712, listed as OXB): 93.64% and 92.82% and 91.17% and 95.11% and 103.46%
% IP accumulation (human OX2R wild type; OXB conc (log, M) -10.29, listed as OXB): 0.00% and 0.37% and 3.64%
Emax (human OX2R wild type): 100

EC50 (OX2R T111A; IP accumulation): 2.1 µM
Emax (OX2R T111A; relative to OX2R WT/TAK-925): 53
EC50 (OX2R Y354A; β-arrestin recruitment): 2.4 µM
EC50 (OX2R F227A; read-out: EC50): > 30 µM
EC50 (OX2R F227A; read-out: pEC50 (converted)): > 30.2 µM
EC50 (human OX2R wild type; IP accumulation): 0.0075 µM
% IP accumulation (human OX2R wild type; TAK-925 conc (log, M) -10.25): 0.00%
Emax (human OX2R wild type): 100
Molecule: COC(=O)N1CCC[C@H](NS(C)(=O)=O)[C@@H]1CO[C@H]1CC[C@@H](c2ccccc2)CC1 [TAK-925, methyl (2R,3S)−3-[(methylsulfonyl)amino]−2-{[(cis−4-phenylcyclohexyl)oxy]methyl}piperidine-1-carboxylate]
